In ChEMBL document CHEMBL1649162, “Fenticonazole activity measured by the methods of the European Committee on Antimicrobial Susceptibility Testing and CLSI against 260 Candida vulvovaginitis isolates from two European regions and annotations on the prevalent genotypes” (2009) one finds MIC50 data, which are given here for 4 molecules.

Each structure is given as a SMILES string. ≈ marks a conversion by molar mass, not a printed value.

Common to all, as to assay type: functional
The subject of assay [1] is Pichia kudriavzevii. As to the kind of experiment: Antimicrobial activity against Candida krusei ATCC 6258 by CLSI M27-A2 broth microdilution method.
Assay [2] has as its system Candida albicans. The assay can be described thus: Antimicrobial activity against Candida albicans by EUCAST broth microdilution method. (Dilution methods test growth across graded concentrations, often in twofold steps.)
Assay [3] deals with Nakaseomyces glabratus. As to the kind of experiment: Antimicrobial activity against Candida glabrata by CLSI M27-A2 broth microdilution method.
The subject of assay [4] is Candida parapsilosis. As to the kind of experiment: Antimicrobial activity against Candida parapsilosis ATCC 22019 by EUCAST broth microdilution method. The settings on record: Lodderomyces parapsilosis.
Assay [5] concerns Candida parapsilosis. The assay can be described thus: Antimicrobial activity against Candida parapsilosis ATCC 22019 by CLSI M27-A2 broth microdilution method. Particulars: Lodderomyces parapsilosis.
Assay [6] relates to Pichia kudriavzevii. The assay can be described thus: Antimicrobial activity against Candida krusei ATCC 6258 by EUCAST broth microdilution method.
For assay [7], the system named is Nakaseomyces glabratus. As to the kind of experiment: Antimicrobial activity against Candida glabrata by EUCAST broth microdilution method.
Assay [8] concerns Candida albicans. The assay can be described thus: Antimicrobial activity against Candida albicans by CLSI M27-A2 broth microdilution method.

The term MIC50 denotes an inhibitory concentration at the 50% level, which refers to growth in some studies and to a panel of isolates in others. A higher MIC50 goes with weaker potency. In the case of `OC(Cn1cncn1)(Cn1cncn1)c1ccc(F)cc1F` [FLUCONAZOLE], the MIC50 is 16 µg/mL (≈ 52.2 µM) in the assay with Pichia kudriavzevii [1]; 0.12 µg/mL (≈ 0.392 µM) against Candida albicans [2]; 2 µg/mL (≈ 6.53 µM) with Nakaseomyces glabratus [3]; 0.5 µg/mL (≈ 1.63 µM) against Candida parapsilosis [4]; 2 µg/mL (≈ 6.53 µM) in the assay with Candida parapsilosis [5]; 32 µg/mL (≈ 104 µM) with Pichia kudriavzevii [6]. Moreover, the results for the MIC50 against Nakaseomyces glabratus [7] and against Candida albicans [8] were 2 µg/mL (≈ 6.53 µM) and 0.12 µg/mL (≈ 0.392 µM), respectively.
With `Clc1ccc(C(Cn2ccnc2)OCc2ccc(Sc3ccccc3)cc2)c(Cl)c1` (configuration not stated) [FENTICONAZOLE], the MIC50 came out at 0.06 µg/mL (≈ 0.132 µM) against Pichia kudriavzevii [1]; 0.03 µg/mL (≈ 0.0659 µM) in the assay with Candida albicans [2]; 0.03 µg/mL (≈ 0.0659 µM) in the assay on Nakaseomyces glabratus [3]; 0.03 µg/mL (≈ 0.0659 µM) with Candida parapsilosis [4]; 0.03 µg/mL (≈ 0.0659 µM) against Candida parapsilosis [5]; 0.06 µg/mL (≈ 0.132 µM) with Pichia kudriavzevii [6]. Moreover, the MIC50 in the assay on Nakaseomyces glabratus [7] and against Candida albicans [8] was 0.03 µg/mL (≈ 0.0659 µM) each time.
Regarding `CC(=O)N1CCN(c2ccc(OCC3COC(Cn4ccnc4)(c4ccc(Cl)cc4Cl)O3)cc2)CC1` (configuration not stated) [KETOCONAZOLE], the MIC50 stood at 0.25 µg/mL (≈ 0.47 µM) in the assay on Pichia kudriavzevii [1]; 0.12 µg/mL (≈ 0.226 µM) against Candida albicans [2]; 0.5 µg/mL (≈ 0.941 µM) in the assay with Nakaseomyces glabratus [3]; 0.12 µg/mL (≈ 0.226 µM) against Candida parapsilosis [4]; 0.12 µg/mL (≈ 0.226 µM) against Candida parapsilosis [5]; 0.12 µg/mL (≈ 0.226 µM) against Pichia kudriavzevii [6]. For the same molecule, the figures for the MIC50 in the assay with Nakaseomyces glabratus [7] and in the assay on Candida albicans [8] were 2 µg/mL (≈ 3.76 µM) and 0.12 µg/mL (≈ 0.226 µM), respectively.
Consider `CCC(C)n1ncn(-c2ccc(N3CCN(c4ccc(OCC5COC(Cn6cncn6)(c6ccc(Cl)cc6Cl)O5)cc4)CC3)cc2)c1=O` (configuration not stated) [ITRACONAZOLE], for which the MIC50 against Pichia kudriavzevii [1] was 0.12 µg/mL (≈ 0.17 µM); in the assay with Candida albicans [2], 0.03 µg/mL (≈ 0.0425 µM); in the assay with Nakaseomyces glabratus [3], 0.03 µg/mL (≈ 0.0425 µM); in the assay with Candida parapsilosis [4] it was 0.06 µg/mL (≈ 0.085 µM); against Candida parapsilosis [5], 0.06 µg/mL (≈ 0.085 µM); with Pichia kudriavzevii [6], 0.03 µg/mL (≈ 0.0425 µM). Also, the MIC50 with Nakaseomyces glabratus [7] and against Candida albicans [8] was 0.03 µg/mL (≈ 0.0425 µM) in each case.
